Target: WT EZH2 (EZH2 4 protein complex: EZH2, EED, SUZ12, RbAp48) (Homo sapiens, UniProt O75530+Q09028+Q15022+Q15910)
Experiment: WT EZH2 nucleosome assay
Format: biochemical
Settings: nucleosome assay, 5 nM EZH2 4-protein complex, 1.5 μM SAM; read-out: WT EZH2 IC50
Protocol: Nucleosome Assay Protocol:
A. Compound preparation • 1. Prepare 10 mM stock solutions in 100% DMSO from solid material • 2. Serial dilute 10 mM compound stocks either 2 or 3-fold in 100% DMSO to generate compounds for 11 point dose response
B. Reagent preparation • 1. Prepare 1× assay buffer containing 100 mM Tris pH 8.5, 4 mM DTT and 0.01% Tween-20 • 2. Dilute purified HeLA oligonucleosomes and recombinant histone H1 (New England Biolabs) in assay buffer to 1.67×. • 3. Dilute EZH2 4 protein complex (EZH2, EED, SUZ12, RbAp48) to 3.5× in assay buffer • 4. Prepare 10×^3H SAM solution in assay buffer using 0.94 μCi/well of radioactive SAM (Perkin Elmer) and sufficient non-labeled SAM (Sigma) for 1.5 μM final concentration. • 5. Dilute TCA to 20% in DI water
C. Enzyme reaction • 1. Final reaction conditions are 5 nM EZH2 4-protein complex, 1.5 μM SAM, 25 μg/mL oligonucleosomes, 50 nM rH1 in a 50 μl reaction volume. • 2. Add 1 μl of diluted compound to the assay plate (96-well V-bottom polypropylene plates) or 1 μl of DMSO for control wells. • 3. Add 30 μl of nucleosomes to the assay plate • 4. Add 14 μl of EZH2 4 protein complex to the assay plate • 5. Add 5 μl of ^3H SAM to start the reaction. • 6. Stop the reaction after 60 minutes with the addition of 100 μl of 20% TCA • 7. Transfer 150 μl of quenched reaction into a prepared filterplate (Millipore #MSIPN4B10) • 8. Apply vacuum to the filterplate to filter the reaction mix through the membrane. • 9. Wash the filterplate with 8×200 μl of PBS, blot dry and dry in an oven for 30 minutes • 10. Add 50 μl of microscint-20 scintillation fluid (Perkin Elmer) to each well, wait 30 minutes and count on a liquid scintillation counter.
D. Data analysis • 1. IC50 values were determined by fitting the data to a 4-parameter IC50 equation using proprietary curve fitting software.
Wild type (WT) EZH2% Effect at 20 μM and IC50 values (μM) generated in WT EZH2 or EZH2PRC2 mutant Y641N nucleosome assays are provided in Table 3 below. A blank entry in the table indicates the data was not generated in that assay.

Sequence of WT EZH2 (EZH2 4 protein complex: EZH2, EED, SUZ12, RbAp48) (Q15910 whole entry): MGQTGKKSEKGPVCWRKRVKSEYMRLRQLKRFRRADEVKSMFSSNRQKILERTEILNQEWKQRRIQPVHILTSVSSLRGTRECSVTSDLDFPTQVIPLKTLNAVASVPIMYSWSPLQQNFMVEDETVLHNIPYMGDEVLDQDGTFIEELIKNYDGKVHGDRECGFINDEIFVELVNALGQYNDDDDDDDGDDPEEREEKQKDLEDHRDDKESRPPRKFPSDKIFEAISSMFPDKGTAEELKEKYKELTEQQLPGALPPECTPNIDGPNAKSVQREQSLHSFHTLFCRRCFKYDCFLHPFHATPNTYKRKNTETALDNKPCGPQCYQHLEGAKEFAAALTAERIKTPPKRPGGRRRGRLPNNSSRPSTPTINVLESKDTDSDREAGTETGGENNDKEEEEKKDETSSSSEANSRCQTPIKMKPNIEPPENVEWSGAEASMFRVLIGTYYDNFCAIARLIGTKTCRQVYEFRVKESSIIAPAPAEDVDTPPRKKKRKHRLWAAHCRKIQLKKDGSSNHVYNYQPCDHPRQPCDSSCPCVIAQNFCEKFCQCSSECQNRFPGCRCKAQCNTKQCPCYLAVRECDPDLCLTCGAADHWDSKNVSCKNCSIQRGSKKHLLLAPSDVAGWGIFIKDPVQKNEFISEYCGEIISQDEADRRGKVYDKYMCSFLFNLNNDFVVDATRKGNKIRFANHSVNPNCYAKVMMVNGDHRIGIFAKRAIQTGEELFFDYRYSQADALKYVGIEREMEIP
Sequence of WT EZH2 (EZH2 4 protein complex: EZH2, EED, SUZ12, RbAp48) (O75530 whole entry partner): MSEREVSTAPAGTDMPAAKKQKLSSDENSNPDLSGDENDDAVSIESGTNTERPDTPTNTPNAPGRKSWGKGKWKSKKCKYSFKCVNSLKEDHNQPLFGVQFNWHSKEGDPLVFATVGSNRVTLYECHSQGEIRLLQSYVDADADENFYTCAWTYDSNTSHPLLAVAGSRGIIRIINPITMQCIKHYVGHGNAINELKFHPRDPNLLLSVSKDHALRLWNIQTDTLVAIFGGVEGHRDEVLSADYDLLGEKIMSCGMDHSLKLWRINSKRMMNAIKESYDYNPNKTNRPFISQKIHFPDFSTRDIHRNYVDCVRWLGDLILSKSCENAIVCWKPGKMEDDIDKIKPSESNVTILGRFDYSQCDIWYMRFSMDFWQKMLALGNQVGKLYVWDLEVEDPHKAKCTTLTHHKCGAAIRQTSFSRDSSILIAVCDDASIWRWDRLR
Sequence of WT EZH2 (EZH2 4 protein complex: EZH2, EED, SUZ12, RbAp48) (Q15022 whole entry partner): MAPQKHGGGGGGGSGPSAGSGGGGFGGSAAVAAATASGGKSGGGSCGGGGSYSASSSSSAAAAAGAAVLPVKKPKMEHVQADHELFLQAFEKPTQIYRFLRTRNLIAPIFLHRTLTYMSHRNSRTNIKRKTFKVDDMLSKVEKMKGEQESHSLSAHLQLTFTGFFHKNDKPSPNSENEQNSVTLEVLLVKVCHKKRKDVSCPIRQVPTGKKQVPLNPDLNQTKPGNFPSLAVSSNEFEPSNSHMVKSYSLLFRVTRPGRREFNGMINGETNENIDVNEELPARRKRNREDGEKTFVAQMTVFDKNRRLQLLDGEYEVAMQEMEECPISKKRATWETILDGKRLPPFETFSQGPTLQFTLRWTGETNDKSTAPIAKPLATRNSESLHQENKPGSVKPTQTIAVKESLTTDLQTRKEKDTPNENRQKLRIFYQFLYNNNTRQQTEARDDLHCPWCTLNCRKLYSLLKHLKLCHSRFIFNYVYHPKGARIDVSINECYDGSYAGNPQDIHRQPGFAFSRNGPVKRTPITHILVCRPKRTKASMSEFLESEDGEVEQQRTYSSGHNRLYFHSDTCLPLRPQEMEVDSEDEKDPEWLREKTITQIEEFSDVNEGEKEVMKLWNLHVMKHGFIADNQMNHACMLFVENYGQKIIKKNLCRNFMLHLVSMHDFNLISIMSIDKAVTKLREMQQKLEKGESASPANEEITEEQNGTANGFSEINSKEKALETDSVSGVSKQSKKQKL
Sequence of WT EZH2 (EZH2 4 protein complex: EZH2, EED, SUZ12, RbAp48) (Q09028 whole entry partner): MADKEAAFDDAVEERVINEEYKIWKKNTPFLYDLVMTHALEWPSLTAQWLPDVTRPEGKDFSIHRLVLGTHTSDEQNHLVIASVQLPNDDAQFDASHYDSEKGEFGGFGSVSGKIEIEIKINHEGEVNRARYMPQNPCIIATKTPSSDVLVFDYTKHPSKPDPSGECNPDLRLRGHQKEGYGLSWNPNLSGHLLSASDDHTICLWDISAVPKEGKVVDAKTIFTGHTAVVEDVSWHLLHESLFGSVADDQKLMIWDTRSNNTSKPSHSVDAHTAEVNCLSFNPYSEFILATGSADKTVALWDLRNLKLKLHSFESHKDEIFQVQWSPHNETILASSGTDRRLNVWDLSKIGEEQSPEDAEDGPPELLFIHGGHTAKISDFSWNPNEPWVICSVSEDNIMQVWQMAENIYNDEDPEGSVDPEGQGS

Row | IC50 [µM] | Compound
1 | 6.61 | Cc1cc(C)c(CNC(=O)c2nc(OCc3cncnc3)nc(-c3ccnn3C)c2C)c(=O)[nH]1 [Example 74, N-[(4,6-dimethyl-2-oxo-1,2-dihydropyridin-3-yl)methyl]-5-methyl-6-(1-methyl-1H-pyrazol-5-yl)-2-(pyrimidin-5-ylmethoxy)pyri-midine-4-carboxamide]
2 | 6.78 | Cc1cc(C)c(CNC(=O)c2ncnc(N3CCOC[C@@H]3C)c2C)c(=O)[nH]1 [Example 75, N-[(4,6-dimethyl-2-oxo-1,2-dihydropyridin-3-yl)methyl]-5-methyl-6-[(3S)-3-methylmorph-olin-4-yl]pyrimidine-4-carboxamide]
3 | 6.94 | Cc1cc(C)c(CNC(=O)c2cccc(-c3c(C#N)cnn3C)c2C)c(=O)[nH]1 [Example 76, 3-(4-cyano-1-methyl-1H-pyrazol-5-yl)-N-[(4,6-dimethyl-2-oxo-1,2-dihydropyridin-3-yl)methyl]-2-methylbenz-amide]
4 | 7.31 | Cc1cc(C)c(CNC(=O)c2cc(Cl)cc(-n3cnnc3C)c2C)c(=O)[nH]1 [Example 78, 5-chloro-N-[(4,6-dimethyl-2-oxo-1,2-dihydropyridin-3-yl)methyl]-2-methyl-3-(3-methyl-4H-1,2,4-triazol-4-yl)benzamide]
5 | 7.53 | Cc1cc(C)c(CNC(=O)c2nc(-c3cncnc3)nc(-c3ccnn3C)c2C)c(=O)[nH]1 [Example 80, N-[(4,6-dimethyl-2-oxo-1,2-dihydropyridin-3-yl)methyl]-5-methyl-6-(1-methyl-1H pyrazol-5-yl)-2,5′-bipyrimidine-4-carboxamide]
6 | 7.74 | Cc1cc(C)c(CNC(=O)c2nc(N3CCOCC3)nc(N3CCC[C@@H]3C)c2C)c(=O)[nH]1 [Example 81, N-[(4,6-dimethyl-2-oxo-1,2-dihydropyridin-3-yl)methyl]-5-methyl-6-[(2S)-2-methylpyrroli-din-1-yl]-2-morpholin-4-ylpyrimidine-4-carboxamide]
7 | 7.96 | Cc1cc(C)c(CNC(=O)c2ncnc(N3C4CCC3CC4)c2C)c(=O)[nH]1 [Example 83, 6-(7-azabicyclo[2.2.1]hept-7-yl)-N-[(4,6-dimethyl-2-oxo-1,2-dihydropyridin-3-yl)methyl]-5-methyl-pyrimidine-4-carobxamide]
8 | 8.14 | Cc1[nH]c(=O)c(CNC(=O)c2cc(Cl)cc(-c3ccnn3C)c2C)c2c1CCCC2 [Example 84, 5-chloro-2-methyl-N-[(1-methyl-3-oxo-2,3,5,6,7,8-hexahydroiso-quinolin-4-yl)methyl]-3-(1-methyl-1H-pyrazol-5-yl)benzamide]
9 | 9.76 | Cc1cc(C)c(CNC(=O)c2ccnc(OC(C)C)c2C)c(=O)[nH]1 [Example 87, N-[(4,6-dimethyl-2-oxo-1,2-dihydropyridin-3-yl)methyl]-2-isopropxy-3-methylisonico-tinamide]
10 | 12 | Cc1cc(C)c(CNC(=O)c2nc(OCCO)nc(-c3ccnn3C)c2C)c(=O)[nH]1 [Example 90, N-[(4,6-dimethyl-2-oxo-1,2-dihydropyridin-3-yl)methyl]-2-(2-hydroxyethoxy)-5-methyl-6-(1-methyl-1H-pyrazol-5-yl)pyrimidine-4-carboxamide]
11 | 12.1 | Cc1cc(C)c(CNC(=O)c2ccnc(-c3ccnn3C)c2Cl)c(=O)[nH]1 [Example 91, 3-chloro-N-[(4,6-dimethyl-2-oxo-1,2-dihydropyridin-3-yl)methyl]-2-(1-methyl-1H-pyrazol-5-yl)isonicotin-amide]
12 | 12.8 | Cc1cc(C)c(CNC(=O)c2nc(N3CCCC3)nc(-c3ccnn3C)c2C)c(=O)[nH]1 [Example 92, N-[(4,6-dimethyl-2-oxo-1,2-dihydropyridin-3-yl)methyl]-5-methyl-6-(1-methyl-1H-pyrazol-5-yl)-2-pyrrolidin-1-ylpyrimidine-4-carboxamide]
13 | 14.5 | Cc1cc(C)c(CNC(=O)c2nc(O[C@@H]3CCOC3)nc(-c3ccnn3C)c2C)c(=O)[nH]1 [Example 93, N-[(4,6-dimethyl-2-oxo-1,2-dihydropyridin-3-yl)methyl]-5-methyl-6-(1-methyl-1H-pyrazol-5-yl)-2-[(3R)-tetrahydro-furan-3-yloxy]pyrimi-dine-4-carboxamide]
14 | 16 | Cc1cc(C)c(CNC(=O)c2nc(C3CC3)nc(-c3ccnn3C)c2C)c(=O)[nH]1 [Example 94, 2-cyclopropyl-N-[(4,6-dimethyl-2-oxo-1,2-dihydropyridin-3-yl)methyl]-5-methyl-6-(1-methyl-1H-pyrazol-5-yl)pyrimidine-4-carboxamide]
15 | 16.5 | CCC1CCCN1c1ncnc(C(=O)NCc2c(C)cc(C)[nH]c2=O)c1C (stereo not shown) [Example 95, N-[(4,6-dimethyl-2-oxo-1,2-dihydropyridin-3-yl)methyl]-6-(2-ethylpyrrolidin-1-yl)-5-methylpyrimi-dine-4-carboxamide]
16 | 16.5 | Cc1cc(C)c(CNC(=O)c2nc(N(C)C)nc(N3CCC[C@@H]3C)c2C)c(=O)[nH]1 [Example 96, 2-(dimethylamino)-N-[(4,6-dimethyl-2-oxo-1,2-dihydropyridin-3-yl)methyl]-5-methyl-6-[(2S)-2-methyplyrrolidin-1-yl]pyrimidine-4-carboxamide]
17 | 16.9 | Cc1cc(C)c(CNC(=O)c2ccnc(N3[C@H](C)CC[C@@H]3C)c2Cl)c(=O)[nH]1 [Example 97, 3-chloro-N-[(4,6-dimethyl-2-oxo-1,2-dihydropyridin-3-yl)methyl]-2-[(2R,5S)-2,5-dimethylpyrroli-din-1-yl]iso-nicotinamide]
18 | 17.3 | Cc1cc(C)c(CNC(=O)c2nc(OCCN3CCC(F)(F)CC3)nc(-c3ccnn3C)c2C)c(=O)[nH]1 [Example 98, 2-[2-(4,4-difluoropiperi-din-1-yl)ethoxy]-N-[(4,6-dimethyl-2-oxo-1,2-dihydropyridin-3-yl)methyl]-5-methyl-6-(1-methyl-1H-pyrazol-5-yl)pyrimidine-4-carboxamide]
19 | 17.6 | Cc1cc(C(=O)NCc2c(C)cc(C)[nH]c2=O)c(C#N)c(OC(C)C)n1 [Example 99, 3-cyano-N-[(4,6-dimethyl-2-oxo-1,2-dihydropyridin-3-yl)methyl]-2-isopropoxy-6-methyliso-nicotinamide]
20 | 17.6 | Cc1cc(C)c(CNC(=O)c2nc(OC(C)C)nc(-c3ccnn3C)c2C)c(=O)[nH]1 [Example 100, N-[(4,6-dimethyl-2-oxo-1,2-dihydropyridin-3-yl)methyl]-2-isopropoxy-5-methyl-6-(1-methyl-1H-pyrazol-5-yl)pyrimidine-4-carboxamide]
21 | 18.4 | Cc1cc(C)c(CNC(=O)c2nc(OCCN3CC[C@H](F)C3)nc(-c3ccnn3C)c2C)c(=O)[nH]1 [Example 101, N-[(4,6-dimethyl-2-oxo-1,2-dihydropyridin-3-yl)methyl]-2-{2-[(3S)-3-fluoropyrrolidin-1-yl]ethoxy}-5-methyl-6-(1-methyl-1H-pyrazol-5-yl)pyrimidine-4-carboxamide]
22 | 18.6 | CCOc1nc(C(=O)NCc2c(C)cc(C)[nH]c2=O)c(C)c(-c2ccnn2C)n1 [Example 102, N-[(4,6-dimethyl-2-oxo-1,2-dihydropyridin-3-yl)methyl]-2-ethoxy-5-methyl-6-(1-methyl-1H-pyrazol-5-yl)pyrimidine-4-carboxamide]
23 | 19.1 | Cc1cc(C)c(CNC(=O)c2nc(OCCN3CC[C@@H](F)C3)nc(-c3ccnn3C)c2C)c(=O)[nH]1 [Example 103, N-[(4,6-dimethyl-2-oxo-1,2-dihydropyridin-3-yl)methyl]-2-{2-[(3R)-3-fluoropyrrolidin-1-yl]ethoxy}-5-methyl-6-(1-methyl-1H-pyrazol-5-yl)pyrimidine-4-carboxamide]
24 | 19.4 | Cc1cc(C)c(CNC(=O)c2nc(-c3cnn(C)c3)nc(N3CCOC[C@@H]3C)c2C(F)(F)F)c(=O)[nH]1 [Example 104, N-[(4,6-dimethyl-2-oxo-1,2-dihydropyridin-3-yl)methyl]-6-[(3S)-3-methylmorpho-lin-4-yl]-2-(1-methyl-1H-pyrazol-4-yl)-5-(trifluoromethyl) pyrimidine-4-carboxamide]
25 | 19.8 | Cc1cc(C)c(CNC(=O)c2nc(OCCN3CCC(F)(F)C3)nc(-c3ccnn3C)c2C)c(=O)[nH]1 [Example 105, 2-[2-(3,3-difluoropyrroli-din-1-yl)ethoxy]-N-[(4,6-dimethyl-2-oxo-1,2-dihydropyridin-3-yl)methyl]-5-methyl-6-(1-methyl-1H-pyrazol-5-yl)pyrimidine-4-carboxamide]
